Reference: patent publication US20130096159A1, “INHIBITORS OF HUMAN 12-LIPOXYGENASE” (The United States of America, as represented the Secretary …, priority 2010, published 2013)

Experiments:
[1] = system: P-selectin on the surface of human platelets; test: α-granule secretion, P-selectin expression by flow cytometry; type: cell-based; conditions: vs agonists alone (thrombin, PAR1-AP, PAR4-AP, ADP); FIG. 4
Method: (§1) Human platelets were obtained from healthy volunteers from within the Thomas Jefferson University community and the Philadelphia area. These studies were approved by the Thomas Jefferson University Institutional Review Board. Informed consent was obtained from all donors before blood draw. Blood was centrifuged at 200 g for 15 min at room temperature. Platelet-rich plasma was transferred into a conical tube containing a 10% acid citrate dextrose solution (39 mM citric acid, 75 mM sodium citrate, and 135 mM glucose, pH 7.4) and centrifuged at 2000 g for 15 min at room temperature. Platelets were resuspended in Tyrode's buffer (12 mM NaHCO3, 127 mM NaCl, 5 mM KCl, 0.5 mM NaH2PO4, 1 mM MgCl2, 5 mM glucose, and 10 mM HEPES), and the final platelet concentration was adjusted as indicated after counting using a Coulter counter (Beckman Coulter, Fullerton, Calif.). Reported results are the data obtained using platelets from at least three different subjects.
Washed platelets were obtained as described in Example 10. Flow cytometry was used to measure the secretion of α-granules. Specifically, P-selectin expression was used to detect α-granule secretion. […] The fluorescence intensity of 10,000 platelets was immediately measured using a C6 Accuri flow cytometer. […]

recombinant human cPLA2 = molecular target: T1, recombinant human cPLA2 (Homo sapiens, UniProt P47712); test: cPLA2 enzymatic activity assay; type: biochemical; conditions: 50 μM, 5 min of incubation; FIG. 8
T1 sequence (P47712 1-749): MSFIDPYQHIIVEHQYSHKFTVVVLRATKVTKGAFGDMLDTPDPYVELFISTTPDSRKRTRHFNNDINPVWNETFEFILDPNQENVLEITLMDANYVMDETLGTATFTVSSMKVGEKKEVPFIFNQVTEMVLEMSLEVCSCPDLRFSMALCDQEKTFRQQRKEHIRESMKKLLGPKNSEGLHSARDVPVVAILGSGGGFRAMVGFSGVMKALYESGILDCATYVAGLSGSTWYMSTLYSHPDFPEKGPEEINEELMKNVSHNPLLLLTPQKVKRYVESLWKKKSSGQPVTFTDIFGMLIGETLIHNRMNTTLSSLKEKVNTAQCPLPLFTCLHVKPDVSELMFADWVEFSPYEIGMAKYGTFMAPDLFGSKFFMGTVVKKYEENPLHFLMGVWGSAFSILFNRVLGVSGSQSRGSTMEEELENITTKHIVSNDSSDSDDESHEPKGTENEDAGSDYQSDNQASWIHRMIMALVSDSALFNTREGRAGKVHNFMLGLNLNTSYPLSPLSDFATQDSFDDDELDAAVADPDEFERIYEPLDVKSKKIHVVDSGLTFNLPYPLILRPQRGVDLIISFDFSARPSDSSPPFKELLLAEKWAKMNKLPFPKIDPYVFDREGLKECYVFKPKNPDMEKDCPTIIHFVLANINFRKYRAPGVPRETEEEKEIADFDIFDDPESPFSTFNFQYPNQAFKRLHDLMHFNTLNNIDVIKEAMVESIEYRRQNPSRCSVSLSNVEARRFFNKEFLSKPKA
Method: A., et al., Biochemistry, 2011, 50: 1731-1738 with the following differences. The inhibitors in solution in DMSO were added at a final concentration of 50 μM right before the recombinant enzyme was added to initiate the reaction. After 5 min of incubation, the products of reaction were analyzed, and the results depicted in FIG. 8.

human platelets = test: dense granule secretion (ATP release) in washed platelets; type: cell-based; conditions: induced by thrombin, PAR1-AP, PAR4-AP, ADP, arachidonic acid, collagen; FIG. 3
Method: as §1
Washed platelets were obtained as described in Example 10. […] After addition of 5 μl of Chrono-lume reagent (Chrono-log Corp., Havertown, Pa.), ATP release was measured in response to stimulation by the agonists thrombin, PAR1-AP, PAR4-AP, ADP, arachidonic acid, and collagen using a Lumi-aggregometer Model 700D (Chrono-log Corp., Havertown, Pa.) at 37° C. with stirring at 1100 rpm. […]

human 12-lipoxygenase = molecular target: T2, human 12-lipoxygenase (Homo sapiens, UniProt P18054); test: human 12-lipoxygenase inhibition (12hLO) assay, absorbance at 234 nm; type: biochemical
T2 sequence (P18054 1-663): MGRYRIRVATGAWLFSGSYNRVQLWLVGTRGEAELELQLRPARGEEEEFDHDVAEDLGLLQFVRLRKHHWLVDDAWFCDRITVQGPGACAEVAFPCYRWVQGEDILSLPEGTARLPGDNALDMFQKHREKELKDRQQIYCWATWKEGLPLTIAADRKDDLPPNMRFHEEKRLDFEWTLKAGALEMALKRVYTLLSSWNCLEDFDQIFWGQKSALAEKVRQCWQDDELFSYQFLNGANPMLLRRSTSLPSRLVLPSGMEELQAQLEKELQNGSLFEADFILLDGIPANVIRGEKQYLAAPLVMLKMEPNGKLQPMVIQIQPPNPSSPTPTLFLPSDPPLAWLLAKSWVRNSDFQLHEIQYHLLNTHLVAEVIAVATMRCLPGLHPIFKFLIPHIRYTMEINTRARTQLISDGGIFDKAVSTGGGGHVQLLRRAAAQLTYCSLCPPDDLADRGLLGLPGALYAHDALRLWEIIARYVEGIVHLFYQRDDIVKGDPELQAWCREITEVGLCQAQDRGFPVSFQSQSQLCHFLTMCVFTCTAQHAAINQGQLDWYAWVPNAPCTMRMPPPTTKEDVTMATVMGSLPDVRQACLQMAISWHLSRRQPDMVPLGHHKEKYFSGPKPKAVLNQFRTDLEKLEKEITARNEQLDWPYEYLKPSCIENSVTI

SMILES: CCC(=O)NC(c1cccs1)c1cc([N+](=O)[O-])c2cccnc2c1O (centres unmarked) [Compound 1, N-((8-hydroxy-5-nitroquinolin-7-yl)(thiophen-2-yl)methyl)propionamide]
- expression of P-selectin on the surface of the platelets [1]: decreased expression of P-selectin
- inhibition of cPLA2 (recombinant human cPLA2): did not inhibit cPLA2
- ATP secretion (dense granule secretion) (human platelets): substantially complete blockage of ATP secretion
- selectivity for inhibition of human 12-lipoxygenase as compared with human 5-lipoxygenase, 15-lipoxygenase-1 and 15-lipoxygenase-2 (human 12-lipoxygenase): exhibited selectivity
- IC50 (human 12-lipoxygenase; 12hLO Inhibition, Table 1, read-out: IC50 (μM) [± SD μM]): 0.8 µM
